Test results reported in PubChem BioAssay AID1963965 (Molecular Pharmacology Branch, DTP, NCI, 2024).

Tested on: 996289-038-R-J1-PDC spheroid viability
Experiment: Anticancer human tumor 996289-038-R-J1-PDC patient-derived colon adenocarcinoma cell line growth inhibition [PI3K]
Settings: spheroids with HUVEC and MSC; for IC50: curve of first compound; for viability, T/C: stronger effect = lower value
How it was run: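 Stroma-containing spheroids: tumor line, pooled-donor HUVEC, hMSC. Treatments: targeted agents with PI3K inhibitors. Dosing: clinically relevant, half-log spacing, 10 microM ceiling without known Cmax. Read-out: cell viability.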

[1] = second compound 0.0316 µM, first compound 0.0316 µM
[2] = second compound 0.0316 µM, first compound 0.1 µM
[3] = second compound 0.0316 µM, first compound 0.316 µM
[4] = second compound 0.0316 µM, first compound 1 µM
[5] = second compound 0.0316 µM, first compound 3.16 µM
[6] = second compound 0.0316 µM, first compound 10 µM
[7] = second compound 0.1 µM, first compound 0.0316 µM
[8] = second compound 0.1 µM, first compound 0.1 µM
[9] = second compound 0.1 µM, first compound 0.316 µM
[10] = second compound 0.1 µM, first compound 1 µM
[11] = second compound 0.1 µM, first compound 3.16 µM
[12] = second compound 0.1 µM, first compound 10 µM
[13] = second compound 0.316 µM, first compound 0.0316 µM
[14] = second compound 0.316 µM, first compound 0.1 µM
[15] = second compound 0.316 µM, first compound 0.316 µM
[16] = second compound 0.316 µM, first compound 1 µM
[17] = second compound 0.316 µM, first compound 3.16 µM
[18] = second compound 0.316 µM, first compound 10 µM
[19] = second compound 1 µM, first compound 0.0316 µM
[20] = second compound 1 µM, first compound 0.1 µM
[21] = second compound 1 µM, first compound 0.316 µM
[22] = second compound 1 µM, first compound 1 µM
[23] = second compound 1 µM, first compound 3.16 µM
[24] = second compound 1 µM, first compound 10 µM
[25] = second compound 3.16 µM, first compound 0.0316 µM
[26] = second compound 3.16 µM, first compound 0.1 µM
[27] = second compound 3.16 µM, first compound 0.316 µM
[28] = second compound 3.16 µM, first compound 1 µM
[29] = second compound 3.16 µM, first compound 3.16 µM
[30] = second compound 3.16 µM, first compound 10 µM
[31] = second compound 10 µM, first compound 0.0316 µM
[32] = second compound 10 µM, first compound 0.1 µM
[33] = second compound 10 µM, first compound 0.316 µM
[34] = second compound 10 µM, first compound 1 µM
[35] = second compound 10 µM, first compound 3.16 µM
[36] = second compound 10 µM, first compound 10 µM
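Further: spheroids exposed to compounds for seven days before viability read.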
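Wherever viability, T/C is given: luminescence used as a proxy for viable cell amount; percent viability relative to DMSO vehicle control as 100%.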

CC1(C)CCC(CN2CCN(c3ccc(C(=O)NS(=O)(=O)c4ccc(NCC5CCOCC5)c([N+](=O)[O-])c4)c(Oc4cnc5[nH]ccc5c4)c3)CC2)=C(c2ccc(Cl)cc2)C1 + Cc1nc(NC(=O)N2CCCC2C(N)=O)sc1-c1ccnc(C(C)(C)C(F)(F)F)c1 showed an IC50 (second compound 0.0316 µM) of 9.83 µM, an IC50 (second compound 0.1 µM) of 8.62 µM and an IC50 (second compound 0.316 µM) of 8.31 µM. The IC50 (second compound 1 µM) was 6.15 µM, the IC50 (second compound 3.16 µM) was 4.84 µM and the IC50 (second compound 10 µM) was < 0.0316 µM. It also gave a viability, T/C [1] of 94%, a viability, T/C [2] of 91.8% and a viability, T/C [3] of 105%. For the same compound, the viability, T/C [4] was 110%, the viability, T/C [5] was 96.9% and the viability, T/C [6] was 49.3%. It also gave a viability, T/C [7] of 95.2%, a viability, T/C [8] of 102% and a viability, T/C [9] of 88.1%. For the same compound, the viability, T/C [10] was 102%, the viability, T/C [11] was 105% and the viability, T/C [12] was 42.8%. For the same compound, the viability, T/C [13] was 88.8%, the viability, T/C [14] was 84.9% and the viability, T/C [15] was 95.9%. For the same compound, the viability, T/C [16] was 93.2%, the viability, T/C [17] was 92.5% and the viability, T/C [18] was 42.1%. For the same compound, the viability, T/C [19] was 68.6%, the viability, T/C [20] was 83.4% and the viability, T/C [21] was 67.8%. For the same compound, the viability, T/C [22] was 82.6%, the viability, T/C [23] was 75.8% and the viability, T/C [24] was 31.6%. For the same compound, the viability, T/C [25] was 66.3%, the viability, T/C [26] was 60.9% and the viability, T/C [27] was 60.4%. For the same compound, the viability, T/C [28] was 61%, the viability, T/C [29] was 62.6% and the viability, T/C [30] was 29.3%. It also gave a viability, T/C [31] of 34.9%, a viability, T/C [32] of 41.8% and a viability, T/C [33] of 42.2%. It also gave a viability, T/C [34] of 54.4%, a viability, T/C [35] of 45.1% and a viability, T/C [36] of 15.4%.

For CCCS(=O)(=O)Nc1ccc(F)c(C(=O)c2c[nH]c3ncc(-c4ccc(Cl)cc4)cc23)c1F + Cc1nc(NC(=O)N2CCCC2C(N)=O)sc1-c1ccnc(C(C)(C)C(F)(F)F)c1, the IC50 (second compound 0.0316 µM) was 5.9 µM, the IC50 (second compound 0.1 µM) was 5.51 µM and the IC50 (second compound 0.316 µM) was 5.54 µM. The IC50 (second compound 1 µM) was 3.45 µM, the IC50 (second compound 3.16 µM) was 1.52 µM and the IC50 (second compound 10 µM) was 0.0316 µM. It also gave a viability, T/C [1] of 90.2%, a viability, T/C [2] of 86.1% and a viability, T/C [3] of 108%. The viability, T/C [4] was 96.1%, the viability, T/C [5] was 82.6% and the viability, T/C [6] was 22%. It also gave a viability, T/C [7] of 95.9%, a viability, T/C [8] of 87.7% and a viability, T/C [9] of 91.6%. The viability, T/C [10] was 88.3%, the viability, T/C [11] was 79.5% and the viability, T/C [12] was 18.5%. The viability, T/C [13] was 84.2%, the viability, T/C [14] was 84.8% and the viability, T/C [15] was 80.2%. It also gave a viability, T/C [16] of 81.3%, a viability, T/C [17] of 70.5% and a viability, T/C [18] of 28.3%. It also gave a viability, T/C [19] of 70.4%, a viability, T/C [20] of 79.6% and a viability, T/C [21] of 70.5%. It also gave a viability, T/C [22] of 66.7%, a viability, T/C [23] of 53.1% and a viability, T/C [24] of 17%. It also gave a viability, T/C [25] of 61.1%, a viability, T/C [26] of 63.5% and a viability, T/C [27] of 57.3%. For the same compound, the viability, T/C [28] was 54.1%, the viability, T/C [29] was 43.2% and the viability, T/C [30] was 15.4%. It also gave a viability, T/C [31] of 44%, a viability, T/C [32] of 44.8% and a viability, T/C [33] of 43.3%. For the same compound, the viability, T/C [34] was 53.2%, the viability, T/C [35] was 31.9% and the viability, T/C [36] was 11.5%.
